According to article PMC8777785, “Antimicrobial Activity of Snake β-Defensins and Derived Peptides” (Toxins, 2021):
In brackets after ≈: the same amount, converted by molar mass. Residues, ends and D or L forms follow the SMILES beside them.

Key:
[1] = system: Escherichia coli ATCC 25922; experiment: Microbroth dilution assay, MIC; assay type: cell-based; conditions: overnight 37 °C, read at 600 nm, three independent experiments
Protocol: (§1) The β-defensins were tested using a microbroth dilution assay. It consists of incubating the bacteria (4.105 colony-forming unit—CFU/mL) and the peptide (from 1 to 512 µg/mL) in liquid broth. After the incubation at 37 °C during the night, the bacterial growth was detected by spectrophotometry at 600 nm. If the measure is similar to the broth, it […]. […] The β-defensins were tested against B. jararaca oral flora because it would be of biological and medical interest. In addition, we tested on E. coli ATCC 25922 and M. luteus that are common Gram-negative and Gram-positive bacteria used in antibacterial tests.
(§2) The antibacterial activity of the alkylated peptides was tested against Gram-negative (G−) bacteria (Klebsiella pneumonia, Serratia marcescens, Morganella morganii, Providencia rettgeri, Citrobacter freundii, Escherichia coli ATCC 25922 and Gram-positive (G+) bacteria (Micrococcus luteus A270 and Staphylococcus aureus) using microbroth assay. In a 96-well plate, 90 µL of 10% tryptone soy broth (TSB) with 4 × 10^5 colony-forming unit (CFU/mL) were mixed with serial twofold dilutions of β-defensins duplicate in concentrations from 512 to 1 µg/mL. The derived peptides coded as PS1, PS2, PS3, PS5, and PS6 (Table 1) were tested against these bacteria in serial twofold dilutions with concentrations bellow 700 µg/mL. After overnight incubation at 37 °C, the turbidity of the bacterial culture was read at 600 nm (Epoch microplate reader, Biotek). The minimal inhibitory concentration (MIC) of each peptide was determined as the lowest concentration that results in no visible bacterial growth. The MIC resulted from three independent experiments. The bacteria K. pneumonia, S. marcescens, M. morganii, P. rettgeri, C. freundii, M. luteus A270 and S. aureus were isolated from Bothrops jararaca buccal flora and kindly provided by Dr. Márcia R. Franzolin (Laboratory of Bacteriology—Instituto Butantan). M. luteus was kindly provided by Dr. Pedro I. da Silva Jr. (Laboratory of Applied Toxinology—Instituto Butantan).

Micrococcus luteus A270 = experiment: Microbroth dilution assay, MIC; assay type: cell-based; conditions: overnight 37 °C, read at 600 nm, three independent experiments
Protocol: as §1, §2

Staphylococcus aureus = experiment: Microbroth dilution assay, MIC; assay type: cell-based; conditions: overnight 37 °C, read at 600 nm, three independent experiments
Protocol: as §1, §2

Citrobacter freundii = experiment: Microbroth dilution assay, MIC; assay type: cell-based; conditions: overnight 37 °C, read at 600 nm, three independent experiments
Protocol: as §1, §2

[2] = system: Trichophyton rubrum (IOC 4527); experiment: Resazurin microtiter assay plate, antifungal MIC90; assay type: cell-based; conditions: resazurin colour change, RPMI 1640, 1 to 250 μM, 28 °C, 24–72 h; three independent experiments
Protocol: (§3) The derived peptides were also tested against fungi species using the classical resazurin microtiter assay plate method. It is based on the color change of the rezazurin dye that in blue indicates the absence of growth in at least 90%, and pink refers to microorganism growth. MIC is determined as the minimal concentration of the sample that can prevent the color change from blue to pink and refers to the inhibition of 90% of microorganisms.
(§4) The antifungal activity was evaluated by the microdilution assay as previously described on clinical strains of Candida albicans (IOC 4525), Cryptococcus neoformans (IOC 4528), Trichophyton rubrum (IOC 4527) and Aspergillus fumigatus (IOC 4526). The fungi were cultivated in potato dextrose agar at 28 °C according to the Clinical and Laboratory Standards Institute recommendations. Fungal suspensions were prepared in RPMI 1640 culture media; the CFU/mL was adjusted to 0.5–2.5 × 10^3 for yeasts (C. albicans and C. neoformans) and 0.4–5 × 10^4 CFU/mL for filamentous fungi (T. rubrum e A. fumigatus), by comparison with a standard curve previously stablished in our laboratory.
(§5) The peptides PS1, PS2, PS, PS3, PS4, PS5 and PS6 at 1 mM in acetic acid at 0.01% were diluted in RPMI 1640 culture media at concentrations ranging from 1 to 250 μM. Amphotericin B (AMB) at concentrations below 15 μg/mL (16 μM) and acetic acid from 0.0002 to 0.0025% was used as control.
(§6) The fungi suspensions were added to a 96 well plate (100 µL/well) and the samples (100 µL) in different concentrations were added to each well. The plate was incubated at 28 °C for 24–72 h, and 24 h before the end of the assay 25 µL of the rezazurin dye at 0.02% were added to each well. The minimal inhibitory concentration (MIC90) was defined as the lowest concentration that prevents the rezazurin’s change in color from blue to pink due to the inhibition of at least 90% of the microorganism’s growth. The assays were performed in three independent experiments.

[3] = system: Cryptococcus neoformans (IOC 4528); experiment: Resazurin microtiter assay plate, antifungal MIC90; assay type: cell-based; conditions: resazurin colour change, RPMI 1640, 1 to 250 μM, 28 °C, 24–72 h; three independent experiments
Protocol: as §3, §4, §5, §6

[4] = system: Candida albicans (IOC 4525); experiment: Resazurin microtiter assay plate, antifungal MIC90; assay type: cell-based; conditions: resazurin colour change, RPMI 1640, 1 to 250 μM, 28 °C, 24–72 h; three independent experiments
Protocol: as §3, §4, §5, §6

[5] = system: Aspergillus fumigatus (IOC 4526); experiment: Resazurin microtiter assay plate, antifungal MIC90; assay type: cell-based; conditions: resazurin colour change, RPMI 1640, 1 to 250 μM, 28 °C, 24–72 h; three independent experiments
Protocol: as §3, §4, §5, §6

Klebsiella pneumonia = experiment: Microbroth dilution assay, MIC; assay type: cell-based, Klebsiella pneumoniae; conditions: short derived peptides, 2.75 to 700 µg/mL, overnight 37 °C, read at 600 nm, three independent experiments
Protocol: as §1, §2

[6] = short derived peptides, 2.75 to 700 µg/mL
[7] = snake β-defensins, linear (alkylated) except native crotamine, 10% TSB, 4 × 10^5 CFU/mL, 512 to 1 µg/mL

Compound: CSCC[C@H](NC(=O)[C@H](CCC(N)=O)NC(=O)[C@@H](N)CO)C(=O)NCC(=O)N[C@@H](CCC(N)=O)C(=O)N[C@@H](CCSC)C(=O)N[C@@H](CO)C(=O)N[C@@H](CO)C(=O)N[C@@H](CCCNC(=N)N)C(=O)N[C@@H](CCCNC(=N)N)C(=O)N[C@@H](CCCNC(=N)N)C(=O)N[C@@H](Cc1ccccc1)C(=O)NCC(=O)N[C@@H](CCCCN)C(=O)O [PS4] (H-SQMGQMSSRRRFGK-OH)
- MIC, E. coli [1, 6]: >423 µM
- MIC, M. luteus (Micrococcus luteus A270; [6]): 26.6 µM (≈ 44 µg/mL)
- MIC, S. aureus (Staphylococcus aureus; [6]): >423 µM
- MIC, C. freundii (Citrobacter freundii; [6]): >423 µM
- MIC90, Trichophyton rubrum [2]: >250 µM
- MIC90, Cryptococcus neoformans [3]: >250 µM
- MIC90, Candida albicans [4]: >250 µM
- MIC90, Aspergillus fumigatus [5]: >250 µM
- MIC, K. pneumoniae (Klebsiella pneumonia): >423 µM

Compound: QGQCHQQRGRCFLHQCPLSHYFLGRLDCGPGRRCCRRRK [DefbLm02, synthetic β-defensin deduced from L. muta gene, GenBank KC117172]
- MIC, E. coli [1, 7]: 3.4 µM
- MIC, M. luteus (Micrococcus luteus A270; [7]): 0.9 µM
- MIC, S. aureus (Staphylococcus aureus; [7]): 6.8 µM
- MIC, C. freundii (Citrobacter freundii; [7]): 3.4 µM

Compound: QEWCRGLGGFCSFYQCRPGHDLGPQDCWPERRCCRWGK [DefbLm01, synthetic β-defensin deduced from L. muta gene, GenBank KC117171]
- MIC, E. coli [1, 7]: >113 µM
- MIC, M. luteus (Micrococcus luteus A270; [7]): 28.4 µM
- MIC, S. aureus (Staphylococcus aureus; [7]): >113 µM
- MIC, C. freundii (Citrobacter freundii; [7]): >113 µM

Compound: CSCC[C@H](NC(=O)[C@H](CCC(N)=O)NC(=O)[C@@H](N)CO)C(=O)NCC(=O)N[C@@H](CCCNC(=N)N)C(=O)N[C@@H](CCSC)C(=O)N[C@@H](CO)C(=O)N[C@@H](CO)C(=O)N[C@@H](CCCNC(=N)N)C(=O)N[C@@H](CCCNC(=N)N)C(=O)N[C@@H](CCCNC(=N)N)C(=O)N[C@@H](Cc1ccccc1)C(=O)NCC(=O)N[C@@H](CCCCN)C(=O)O [PS2] (H-SQMGRMSSRRRFGK-OH)
- MIC, E. coli [1, 6]: 415 µM (≈ 699 µg/mL)
- MIC, M. luteus (Micrococcus luteus A270; [6]): 26.1 µM (≈ 44 µg/mL)
- MIC, S. aureus (Staphylococcus aureus; [6]): 415 µM (≈ 699 µg/mL)
- MIC, C. freundii (Citrobacter freundii; [6]): >415 µM
- MIC90, Trichophyton rubrum [2]: >250 µM
- MIC90, Cryptococcus neoformans [3]: >250 µM
- MIC90, Candida albicans [4]: >250 µM
- MIC90, Aspergillus fumigatus [5]: >250 µM
- MIC, K. pneumoniae (Klebsiella pneumonia): >415 µM

Compound: N=C(N)NCCC[C@H](NC(=O)[C@H](Cc1c[nH]c2ccccc12)NC(=O)[C@H](CCCNC(=N)N)NC(=O)[C@@H](N)CO)C(=O)N[C@@H](Cc1c[nH]c2ccccc12)C(=O)N[C@@H](CCCCN)C(=O)N[C@@H](CO)C(=O)O [PS6] (H-SRWRWKS-OH)
- MIC, E. coli [1, 6]: 697 µM (≈ 701 µg/mL)
- MIC, M. luteus (Micrococcus luteus A270; [6]): 43.8 µM (≈ 44 µg/mL)
- MIC, S. aureus (Staphylococcus aureus; [6]): 349 µM (≈ 351 µg/mL)
- MIC90, Trichophyton rubrum [2]: >250 µM
- MIC90, Cryptococcus neoformans [3]: >250 µM
- MIC90, Candida albicans [4]: >250 µM
- MIC90, Aspergillus fumigatus [5]: >250 µM
- MIC, K. pneumoniae (Klebsiella pneumonia): >697 µM

Compound: N=C(N)NCCC[C@H](NC(=O)CNC(=O)[C@@H]1CCCN1C(=O)CNC(=O)[C@@H](N)CO)C(=O)N[C@@H](CCCNC(=N)N)C(=O)N[C@@H](CO)C(=O)N[C@@H](CO)C(=O)N[C@@H](CCCNC(=N)N)C(=O)N[C@@H](CCCNC(=N)N)C(=O)N[C@@H](CCCNC(=N)N)C(=O)N[C@@H](Cc1c[nH]c2ccccc12)C(=O)N[C@@H](CCCCN)C(=O)O [PS5] (H-SGPGRRSSRRRWK-OH)
- MIC, E. coli [1, 6]: 55.2 µM (≈ 87.5 µg/mL)
- MIC, M. luteus (Micrococcus luteus A270; [6]): 13.9 µM (≈ 22 µg/mL)
- MIC, S. aureus (Staphylococcus aureus; [6]): 27.7 µM (≈ 43.9 µg/mL)
- MIC, C. freundii (Citrobacter freundii; [6]): 110 µM (≈ 174 µg/mL)
- MIC90, Trichophyton rubrum [2]: >250 µM
- MIC90, Cryptococcus neoformans [3]: >250 µM
- MIC90, Candida albicans [4]: >250 µM
- MIC90, Aspergillus fumigatus [5]: >250 µM
- MIC, K. pneumoniae (Klebsiella pneumonia): 27.7 µM (≈ 43.9 µg/mL)

Compound: QRICLGGRGFCHSTPCPRSTIDYGKKDCWGSLRCCEPKRPGK [DefbPm, synthetic β-defensin deduced from P. mertensis gene, GenBank KX664436]
- MIC, E. coli [1, 7]: >109 µM
- MIC, M. luteus (Micrococcus luteus A270; [7]): 6.8 µM
- MIC, S. aureus (Staphylococcus aureus; [7]): >109 µM
- MIC, C. freundii (Citrobacter freundii; [7]): >109 µM

Compound: QPQCRWLDGFCHSSPCPSGTTSIGQQDCLWYESCCIPRYEK [Crotasin, synthetic β-defensin deduced from C. durissus gene, GenBank AF250212]
- MIC, E. coli [1, 7]: >108 µM
- MIC, M. luteus (Micrococcus luteus A270; [7]): >108 µM
- MIC, S. aureus (Staphylococcus aureus; [7]): >108 µM
- MIC, C. freundii (Citrobacter freundii; [7]): >108 µM
